Test results reported in patent publication US20260232652A1, “COMBINATIONS OF DGK (DIACYLGLYCEROL KINASE) INHIBITORS” (priority 2023, published 2026).
“Also recorded” adds a separate entry of the source.

What was measured:
[1] = system: Hepa 1-6 tumor bearing mice; assay: Hepa 1-6 tumor bearing mice, mean tumor volume (Example 8); type: in vivo; conditions: DGKzeta inhibitor A′ 3 mg/kg QD p.o., TPP-15285 5 mg/kg BIW i.p.
Source text: (§1) While the antibody administration was started on day 7 after tumor inoculation, the DGK inhibitor treatment started two days later, on day 9 after tumor inoculation. This schedule was designed to allow the efficient depletion of the Tregs by the anti-mouse CCR8 surrogate antibody before the DGK inhibitor activates the T cells. […] While the antibody administration was started on day 7 after tumor inoculation, the DGK inhibitor treatment started two days later, on day 9 after tumor inoculation. This schedule was designed to allow the efficient depletion of the Tregs by the anti-mouse CCR8 surrogate antibody before the DGK inhibitor activates the T cells. […] While the antibody administration was started on day 7 after tumor inoculation, the DGKalpha and DGKzeta inhibitor treatment started two days later, on day 9 after tumor inoculation. This schedule was designed to allow the efficient depletion of the Tregs by the anti-mouse CCR8 surrogate antibody before the DGK inhibitor activates the T cells. […] The DGKalpha and DGKzeta inhibitor treatment started on day 9 after tumor inoculation.

[2] = system: IFN-γ; assay: IFN-γ secretion in Colo-800 / MART1 T cell co-culture (ELISA); type: cell-based, human; conditions: monotherapy 50 nM; 72 hours after start of co-culture
[3] = system: EMT6 murine breast carcinoma cells; assay: Syngeneic EMT6 murine breast carcinoma model (Example 4); type: in vivo; conditions: EMT6 s.c. in Balb/c mice; DGKalpha inhibitor A 3 mg/kg QD, DGKzeta inhibitor A′ 5 mg/kg QD, plus isotype control 5 mg/kg Q3/4D; treatment day 8 to 23
Method: EMT6 murine breast carcinoma cells were inoculated s.c. into Balb/c mice (n=10/group). […] Q3/4D, every third or fourth day; QD, once daily. […] The following eight treatment groups are included: Polyethylene glycol 400 (PEG)/ethanol (EtOH)/water (60/10/30). • 1. Anti-PD-L1 (TPP-3911, 5 mg/kg) i.p., q3/4d • 2. […] DGKzeta inhibitor A' (5 mg/kg) p.o., q.d.+Isotype control (5 mg/kg) i.p., q3/4d • 4. […] Vehicle as described supra, q.d. Mice were assigned to a study at the age of 6-8 weeks. Animal husbandry, feeding and health conditions were according to animal welfare guidelines. EMT6 cell line was cultivated with appropriate medium and split at least 3 times before inoculation. Female Balb/c mice were inoculated subcutaneously with 5×10>5 tumor cells in a medium/matrigel mixture ratio of 1:1. After 8 days the mice were randomized, and therapeutic treatment started when tumors had reached a size of approx. 40-mm^2. Tumor size was measured using calipers determining length (a) and width (b), for results see FIG. 5. Tumor volume was calculated according to: […]

[4] = system: MC38 tumor bearing mice; assay: MC38 tumor bearing mice, mean tumor volume (Example 7); type: in vivo; conditions: DGKzeta inhibitor A′ 3 mg/kg QD p.o., TPP-15285 5 mg/kg BIW i.p.
Source text: as §1

[5] = system: MC38 syngeneic mouse tumor model; assay: MC38 syngeneic mouse tumor model, different dose combination ratios (Example 5); type: in vivo; conditions: 3 mg/kg p.o. q.d. each (monotherapy, or 3 mg/kg + 3 mg/kg), day 25 after tumor inoculation
Source text: The objective of this study was to observe the effects of combination therapies with DGKzeta and/or DGKalpha inhibitors on the tumor volume in the MC38 syngeneic mouse tumor model upon different dose combination ratios. The following eight treatment groups are included: • 1. Vehicle • 2. […] Treatment was started on ~day 8 after tumor inoculation at ~80-100 mm^3 tumor volume. […] Day 25 after tumor inoculation).

[6] = molecular target: T1, human DGKalpha (Homo sapiens, UniProt P23743); assay: Human DGKalpha kinase activity inhibition assay (ADP-Glo); type: biochemical; conditions: read-out: IC50 hDGKa
T1 construct: made in house; host or cells: baculovirus-infected Sf9 insect cells
Method: Human DGKalpha inhibitory activity of compounds of the present invention was quantified employing the human DGKalpha kinase activity assay as described in the following paragraphs. In essence, the enzyme activity was measured by quantification of the adenosine-di-phosphate (ADP) generated as a co-product of the enzyme reaction via the “ADP-Glo™ Kinase Assay” kit from the company Promega. This detection system works as follows: In a first step the ATP not consumed in the kinase reaction is quantitatively converted to cAMP employing an adenylate cyclase (“ADP-Glo-reagent”), then the adenylate cyclase is stopped and the ADP generated in the kinase reaction converted to ATP, which subsequently generates in a luciferase-based reaction a glow-luminescence signal (“Kinase Detection Reagent”).
C-terminally FLAG-tagged, recombinant full-length human DGKalpha (expressed in baculovirus infected insect cells, purified using anti-Flag pulldown and size exclusion chromatography as described below, DGKa_hu_1) was used as enzyme. As substrate for the kinase 1,2-dioleoyl-sn-glycerol, reconstituted in octyl-β-D-glucopyranoside micelles, was used. […] Then 35 volumes of 50 mM MOPS buffer (pH 7.4) were added to yield a solution of 0.28 mM 1,2 dioleoyl-sn-glycerol and 200 mM octyl-β-D-glucopyranoside, which was aliquoted, flash-frozen in liquid nitrogen, and stored at −20° C. until use.
For the assay 50 nl of a 100-fold concentrated solution of the test compound in dimethyl sulfoxide (DMSO, Sigma) was pipetted into either a white 1536-well or a white low-volume 384-well microtiter plate (both Greiner Bio-One, Frickenhausen, Germany). […] The concentration of DGKα was adjusted depending of the activity of the enzyme lot and was chosen appropriate to have the assay in the linear range, a typical concentration is about 0.1 nM. The reaction was stopped by the addition of […] of “ADP-Glo-reagent” (1 to 1.5 diluted with water) and the resulting mixture was incubated at 22° C. for 1 h to convert the ATP not consumed in the kinase reaction completely to cAMP. […] The amount of emitted light was taken as a measure for the amount of ADP generated and thereby for the activity of the DGKα.

[7] = Day 0, DGKalpha inhibitor A 5 mg/kg QD p.o.
[8] = Day 4, DGKalpha inhibitor A 5 mg/kg QD p.o.
[9] = Day 7, DGKalpha inhibitor A 5 mg/kg QD p.o.
[10] = Day 11, DGKalpha inhibitor A 5 mg/kg QD p.o.
[11] = Day 14, DGKalpha inhibitor A 5 mg/kg QD p.o.
[12] = Day 18, DGKalpha inhibitor A 5 mg/kg QD p.o.
[13] = Day 20, DGKalpha inhibitor A 5 mg/kg QD p.o.
[14] = Day 0 (day 7 after tumor inoculation), DGKalpha inhibitor A 5 mg/kg QD p.o.

T1 sequence (P23743 whole entry): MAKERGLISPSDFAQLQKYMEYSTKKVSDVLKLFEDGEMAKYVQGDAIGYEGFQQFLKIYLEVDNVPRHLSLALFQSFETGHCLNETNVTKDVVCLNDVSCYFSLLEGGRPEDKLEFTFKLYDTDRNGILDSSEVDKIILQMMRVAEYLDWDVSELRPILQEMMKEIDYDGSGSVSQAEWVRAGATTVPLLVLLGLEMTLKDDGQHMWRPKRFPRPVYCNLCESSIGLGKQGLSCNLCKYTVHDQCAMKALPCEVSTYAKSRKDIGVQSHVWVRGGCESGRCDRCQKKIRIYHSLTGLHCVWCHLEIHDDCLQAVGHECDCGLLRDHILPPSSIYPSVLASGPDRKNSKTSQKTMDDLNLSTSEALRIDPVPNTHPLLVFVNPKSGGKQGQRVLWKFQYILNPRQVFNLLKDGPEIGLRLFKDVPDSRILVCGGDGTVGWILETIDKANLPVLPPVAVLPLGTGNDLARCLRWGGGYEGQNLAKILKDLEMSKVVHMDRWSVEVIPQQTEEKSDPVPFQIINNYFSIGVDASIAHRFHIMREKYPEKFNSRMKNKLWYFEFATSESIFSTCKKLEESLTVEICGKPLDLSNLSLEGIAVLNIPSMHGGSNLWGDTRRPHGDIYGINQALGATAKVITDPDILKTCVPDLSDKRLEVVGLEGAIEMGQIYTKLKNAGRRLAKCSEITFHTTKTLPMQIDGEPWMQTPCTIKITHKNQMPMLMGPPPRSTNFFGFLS

Row | IC50 [6] [nM] | Compound | Mean tumor volume [1, 7] [mm^3] | Mean tumor volume [1, 8] [mm^3] | Mean tumor volume [1, 9] [mm^3] | Mean tumor volume [1, 10] [mm^3] | Mean tumor volume [1, 11] [mm^3] | Mean tumor volume [1, 12] [mm^3] | Mean tumor volume [1, 13] [mm^3] | increase in IFN-γ secretion [2] | tumor growth inhibition [3] | Mean tumor volume [4, 14] [mm^3] | Mean tumor volume [4, 8] [mm^3] | Mean tumor volume [4, 9] [mm^3] | Mean tumor volume [4, 10] [mm^3] | Mean tumor volume [4, 11] [mm^3] | Mean tumor volume [4, 12] [mm^3] | inhibition of tumor growth [5]
1 | 0.25 | Cc1ccc2oc(C3CCN(c4c(C(N)=O)c(=O)n(C)c5ccc(F)cc45)CC3)nc2c1 [DGKalpha inhibitor A, 6-fluoro-1-methyl-4-[4-(5-methyl-1,3-benzoxazol-2-yl)piperidin-1-yl]-2-oxo-1,2-dihydroquinoline-3-carboxamide] | 88.99 | 186.75 | 321.40 | 461.93 | 569.94 | 787.30 | 957.86 | slight | only moderate tumor growth inhibitions | 91.74 | 216.59 | 483.4 | 1057.04 | 1585.28 | 2961.81 | only moderate inhibition of tumor growth; also recorded: no single agent activity
2 | > 3630 | COc1ccc(C(=O)c2sc(N(c3ccc(F)cc3)[C@H](C)C(N)=O)nc2N)cc1 [DGKzeta inhibitor A′, (R)-2-(N-[4-amino-5-(4-methoxybenzoyl)thiazol-2-yl]-4-fluoro-anilino)propanamide] | 88.99 | 224.86 | 429.26 | 624.07 | 799.19 | 1001.75 | 1158.6 | moderate | only moderate tumor growth inhibitions | 91.65 | 216.68 | 480.5 | 982.9 | 1448.04 | 2879.9 | only moderate inhibition of tumor growth
